In the experiment the target is T1, Cannabinoid-1 receptor (CB1R) (Rattus norvegicus, UniProt P20272).
T1 construct: The tissue obtained from the brain of SD rats was homogenized; from tissue; host or cells: brain of SD rats (membrane pellet of the homogenate)
The experiment can be described thus: Cannabinoid-1 receptor (CB1R) binding affinity assay ([3H]CP-55940, rat CB-1 receptor binding protocol). Particulars: brain tissue of SD rats, [3H]CP-55940, 30° C. 60 min; read-out: IC50.

Among the data in US7875647B2, “Heteroaryl-pyrazole derivatives as cannabinoid CB1 receptor antagonists” (Green Cross Corporation, priority 2006, dated 2011) are IC50 values, retold here.

One may read the IC50 as the concentration needed to halve the response being measured.

T1 sequence (P20272 whole entry): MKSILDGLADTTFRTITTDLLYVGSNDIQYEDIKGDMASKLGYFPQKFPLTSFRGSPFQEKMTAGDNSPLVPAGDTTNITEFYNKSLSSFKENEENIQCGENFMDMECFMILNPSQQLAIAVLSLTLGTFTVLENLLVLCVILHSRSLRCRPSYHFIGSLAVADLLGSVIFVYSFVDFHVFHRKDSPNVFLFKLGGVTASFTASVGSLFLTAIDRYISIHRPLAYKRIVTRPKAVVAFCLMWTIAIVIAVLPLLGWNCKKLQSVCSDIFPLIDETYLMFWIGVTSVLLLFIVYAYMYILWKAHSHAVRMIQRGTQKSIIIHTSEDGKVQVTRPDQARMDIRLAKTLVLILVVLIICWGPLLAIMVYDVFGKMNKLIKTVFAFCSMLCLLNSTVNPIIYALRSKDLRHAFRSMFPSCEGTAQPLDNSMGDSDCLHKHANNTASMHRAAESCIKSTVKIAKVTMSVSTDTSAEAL

Regarding `CC(C)(C)c1nnc(-c2nn(-c3ccc(Cl)cc3Cl)c(-c3ccc(Cl)cc3)c2Cn2cncn2)o1` [Example 296, 2-(4-((1H-1,2,4-triazol-1-yl)methyl)-5-(4-chlorophenyl)-1-(2,4-dichlorophenyl)-1H-pyrazol-3-yl)-5-tert-butyl-1,3,4-oxadiazole], the IC50 was determined as 2.36 nM. With `Cc1c(-c2nnc(C3CCCC3)s2)nn(-c2ccc(Cl)cc2Cl)c1-c1ccc(Br)cc1` [Example 366, 2-(5-(4-Bromophenyl)-1-(2,4-dichlorophenyl)-4-methyl-1H-pyrazol-3-yl)-5-cyclopentyl-1,3,4-thiadiazole], the 50% inhibitory concentration (IC50) was 18.1 nM. Turning to `Cc1ccc(C2(c3nnc(-c4nn(-c5ccc(Cl)cc5Cl)c(-c5ccc(Cl)cc5)c4C)s3)CC2)cc1` [Example 460, 2-(5-(4-chlorophenyl)-1-(2,4-dichlorophenyl)-4-methyl-1H-pyrazol-3-yl)-5-(1-p-tolylcyclopropyl)-1,3,4-thiadiazole], the IC50 came to 20.1 nM.

Turning to `CC(C)(C)c1nnc(-c2nn(-c3ccc(Cl)cc3Cl)c(-c3ccc(Cl)cc3)c2Br)s1` [Example 541, 2-(4-bromo-5-(4-chlorophenyl)-1-(2,4-dichlorophenyl)-1H-pyrazol-3-yl)-5-tert-butyl-1,3,4-thiadiazole], the 50% inhibitory concentration (IC50) is 23.1 nM. As for `CC(C)(C)c1nnc(-c2nn(-c3ccc(Cl)cc3Cl)c(-c3ccc(Cl)cc3)c2Cn2ccnc2)o1` [Example 297, 2-(4-((1H-imidazol-1-yl)methyl)-5-(4-chlorophenyl)-1-(2,4-dichlorophenyl)-1H-pyrazol-3-yl)-5-tert-butyl-1,3,4-oxadiazole], the IC50 amounted to 18.7 nM. Turning to `Cc1c(-c2nnc(C3(C)CC3)s2)nn(-c2ccc(Cl)cc2Cl)c1-c1ccc(Cl)cc1` [Example 469, 2-(5-(4-chlorophenyl)-1-(2,4-dichlorophenyl)-4-methyl-1H-pyrazol-3-yl)-5-(1-methylcyclopropyl)-1,3,4-thiadiazole], the IC50 was 36.3 nM.

On to `Cc1c(-c2nnc(C3(C)CC3(Cl)Cl)o2)nn(-c2ccc(Cl)cc2Cl)c1-c1ccc(Cl)cc1` (stereo not shown) [Example 65, 2-(5-(4-chlorophenyl)-1-(2,4-dichlorophenyl)-4-methyl-1H-pyrazol-3-yl)-5-(2,2-dichloro-1-methylcyclopropyl)-1,3,4-oxadiazole], for which the IC50 came out at 12.4 nM. In the case of `CC(C)(C)c1nnc(-c2nn(-c3ccc(Cl)cc3Cl)c(-c3ccc(Br)cc3)c2Cn2ncnn2)o1` [Example 302, 2-(4-((2H-tetrazol-2-yl)methyl)-5-(4-bromophenyl)-1-(2,4-dichlorophenyl)-1H-pyrazol-3-yl)-5-tert-butyl-1,3,4-oxadiazole], the IC50 turned out to be 6.44 nM. With `Cc1c(-c2nnc(CC3CC3)s2)nn(-c2ccc(Cl)cc2Cl)c1-c1ccc(Cl)cc1` [Example 370, 2-(5-(4-Chlorophenyl)-1-(2,4-dichlorophenyl)-4-methyl-1H-pyrazol-3-yl)-5-(cyclopropylmethyl)-1,3,4-thiadiazole], the concentration for half-maximal inhibition (IC50) stood at 67.7 nM.

As for `Cc1c(-c2nnc(-c3ccco3)o2)nn(-c2ccc(Cl)cc2Cl)c1-c1ccc(Cl)cc1` [Example 8, 2-(5-(4-chlorophenyl)-1-(2,4-dichlorophenyl)-4-methyl-1H-pyrazol-3-yl)-5-(furan-2-yl)-1,3,4-oxadiazole], the half-inhibitory concentration (IC50) was found to be 112 nM. To `Cc1c(-c2nnc(C(C)(C)C)s2)nn(-c2ccc(Cl)cc2Cl)c1-c1cccc(Cl)c1` [Example 434, 2-tert-butyl-5-(5-(3-chlorophenyl)-1-(2,4-dichlorophenyl)-4-methyl-1H-pyrazol-3-yl)-1,3,4-thiadiazole] belongs 172 nM; to `CCc1c(-c2nnnn2C2CCCC2)nn(-c2ccc(Cl)cc2Cl)c1-c1ccc(Br)cc1` [Example 609, 5-(5-(4-bromophenyl)-1-(2,4-dichlorophenyl)-4-ethyl-1H-pyrazol-3-yl)-1-cyclopentyl-1H-tetrazole], 14.2 nM; to `Cc1c(-c2nnc(CC3CCCC3)o2)nn(-c2ccc(Cl)cc2Cl)c1-c1ccc(Cl)cc1` [Example 22, 2-(5-(4-Chlorophenyl)-1-(2,4-dichlorophenyl)-4-methyl-1H-pyrazol-3-yl)-5-(cyclopentylmethyl)-1,3,4-oxadiazole], 35.7 nM. In the case of `CC(C)(C)c1nnc(-c2nn(-c3ccc(Cl)cc3Cl)c(-c3ccc(Cl)cc3)c2CC#N)o1` [Example 310, 2-(3-(5-tert-butyl-1,3,4-oxadiazol-2-yl)-5-(4-chlorophenyl)-1-(2,4-dichlorophenyl)-1H-pyrazol-4-yl)acetonitrile], the IC50 is 6.12 nM.

`Cc1c(-c2n[nH]c(-c3cccs3)n2)nn(-c2ccc(Cl)cc2Cl)c1-c1ccc(Cl)cc1` [Example 614, 3-(5-(4-Chlorophenyl)-1-(2,4-dichlorophenyl)-4-methyl-1H-pyrazol-3-yl)-5-(thiophen-2-yl)-1H-1,2,4-triazole]: the IC50 was 389 nM. Consider `CC(C)(C)c1nnc(-c2nn(-c3ccccc3Cl)c(-c3ccc(Cl)cc3)c2Cn2cncn2)o1` [Example 325, 2-(4-((1H-1,2,4-triazol-1-yl)methyl)-1-(2-chlorophenyl)-5-(4-chlorophenyl)-1H-pyrazol-3-yl)-5-tert-butyl-1,3,4-oxadiazole], for which the IC50 came to 2.26 nM. Consider `Clc1ccc(-c2c(Cn3cncn3)c(-c3nnc(C4CCC4)o3)nn2-c2ccc(Cl)cc2Cl)cc1` [Example 315, 2-(4-((1H-1,2,4-triazol-1-yl)methyl)-5-(4-chlorophenyl)-1-(2,4-dichlorophenyl)-1H-pyrazol-3-yl)-5-cyclobutyl-1,3,4-oxadiazole], for which the IC50 turned out to be 3.42 nM. As for `Cc1c(-c2nnc(C3(C(F)(F)F)CC3)s2)nn(-c2ccc(Cl)cc2Cl)c1-c1ccc(Cl)cc1` [Example 462, 2-(5-(4-chlorophenyl)-1-(2,4-dichlorophenyl)-4-methyl-1H-pyrazol-3-yl)-5-(1-(trifluoromethyl)cyclopropyl)-1,3,4-thiadiazole], the IC50 came out at 36.5 nM. `Cc1c(-c2nnc(C3CCCCCC3)s2)nn(-c2ccc(Cl)cc2Cl)c1-c1ccc(Cl)cc1` [Example 362, 2-(5-(4-Chlorophenyl)-1-(2,4-dichlorophenyl)-4-methyl-1H-pyrazol-3-yl)-5-cycloheptyl-1,3,4-thiadiazole]: the IC50 stood at 36.1 nM. To `Cc1c(-c2nnc(C3(c4ccc(Cl)cc4)CCC3)o2)nn(-c2cccc(Cl)c2Cl)c1-c1ccc(Cl)cc1` [Example 137, 2-(5-(4-chlorophenyl)-1-(2,3-dichlorophenyl)-4-methyl-1H-pyrazol-3-yl)-5-(1-(4-chlorophenyl)cyclobutyl)-1,3,4-oxadiazole] belongs 141 nM; to `CCc1c(-c2nnc(C3(c4ccc(OC)cc4)CC3)s2)nn(-c2ccc(Cl)cc2Cl)c1-c1ccc(Cl)cc1` [Example 481, 2-(5-(4-chlorophenyl)-1-(2,4-dichlorophenyl)-4-ethyl-1H-pyrazol-3-yl)-5-(1-(4-methoxyphenyl)cyclopropyl)-1,3,4-thiadiazole], 7.6 nM; to `CCc1c(-c2nnc(C3(c4ccc(Cl)cc4)CC3)o2)nn(-c2ccccc2Cl)c1-c1ccc(Cl)cc1` [Example 144, 2-(1-(2-chlorophenyl)-5-(4-chlorophenyl)-4-ethyl-1H-pyrazol-3-yl)-5-(1-(4-chlorophenyl)cyclopropyl)-1,3,4-oxadiazole], 2.16 nM. With “2-(1-benzylcyclopropyl)-5-(5-(4-bromophenyl)-1-(2,4-dichlorophenyl)-4-ethyl-1H-pyrazol-3-yl)-1,3,4-oxadiazole [Example 271]”, the IC50 is 5.88 nM.

For `Cc1c(-c2nnc(C3(c4ccc(Cl)cc4)CC3)o2)nn(-c2ccc(Cl)cc2Cl)c1-c1ccc(Cl)cc1` [Example 67, 2-(5-(4-chlorophenyl)-1-(2,4-dichlorophenyl)-4-methyl-1H-pyrazol-3-yl)-5-(1-(4-chlorophenyl)cyclopropyl)-1,3,4-oxadiazole], the IC50 was 8.61 nM. The figure for `Clc1ccc(-c2c(Cn3cncn3)c(-c3nnc(C4(c5ccccc5)CCCC4)o3)nn2-c2ccc(Cl)cc2Cl)cc1` [Example 323, 2-(4-((1H-1,2,4-triazol-1-yl)methyl)-5-(4-chlorophenyl)-1-(2,4-dichlorophenyl)-1H-pyrazol-3-yl)-5-(1-phenylcyclopentyl)-1,3,4-oxadiazole] is 5.29 nM; for `CCc1c(-c2nnc(C3(c4ccc(Cl)cc4Cl)CC3)o2)nn(-c2ccc(Cl)cc2Cl)c1-c1ccc(Cl)cc1` [Example 153, 2-(5-(4-chlorophenyl)-1-(2,4-dichlorophenyl)-4-ethyl-1H-pyrazol-3-yl)-5-(1-(2,4-dichlorophenyl)cyclopropyl)-1,3,4-oxadiazole] it is 5.83 nM; for `CCCC(C)c1nnc(-c2nn(-c3ccc(Cl)cc3Cl)c(-c3ccc(Br)cc3)c2CC)s1` (stereo not shown) [Example 414, 2-(5-(4-bromophenyl)-1-(2,4-dichlorophenyl)-4-ethyl-1H-pyrazol-3-yl)-5-(pentan-2-yl)-1,3,4-thiadiazole] it is 9.18 nM. For `Cc1c(-c2nnc(C3(c4ccc(Cl)cc4)CC3)s2)nn(-c2ccc(Cl)cc2)c1-c1ccc(Cl)cc1` [Example 447, 2-(1,5-bis(4-chlorophenyl)-4-methyl-1H-pyrazol-3-yl)-5-(1-(4-chlorophenyl)cyclopropyl)-1,3,4-thiadiazole], the IC50 stood at 453 nM. Consider `CCc1c(-c2nnc(C3(c4ccc(OC)cc4)CC3)s2)nn(-c2ccc(Cl)cc2Cl)c1-c1ccc(Br)cc1` [Example 473, 2-(5-(4-bromophenyl)-1-(2,4-dichlorophenyl)-4-ethyl-1H-pyrazol-3-yl)-5-(1-(4-methoxyphenyl)cyclopropyl)-1,3,4-thiadiazole], for which the IC50 was found to be 4.53 nM. In the case of `CC(C)(c1ccc(Cl)cc1)c1nnc(-c2nn(-c3ccc(Cl)cc3Cl)c(-c3ccc(Cl)cc3)c2Br)o1` [Example 343, 2-(4-bromo-5-(4-chlorophenyl)-1-(2,4-dichlorophenyl)-1H-pyrazol-3-yl)-5-(2-(4-chlorophenyl)propan-2-yl)-1,3,4-oxadiazole], the IC50 was found to be 22.2 nM.

`Clc1ccc(-c2c(Cn3cncn3)c(-c3nnc(C4(c5ccc(Cl)cc5)CCC4)s3)nn2-c2ccc(Cl)cc2Cl)cc1` [Example 513, 2-(4-((1H-1,2,4-triazol-1-yl)methyl)-5-(4-chlorophenyl)-1-(2,4-dichlorophenyl)-1H-pyrazol-3-yl)-5-(1-(4-chlorophenyl)cyclobutyl)-1,3,4-thiadiazole]: the IC50 amounted to 2.34 nM.
